Source: patent publication US7473683B2, “Nonpolar thymidine analogs” (The Board of Trustees of the Leland Stanford Junior …, priority 2005, dated 2009)

How the values were obtained:
[1] = tested on: DNA Pol I (Klenow fragment, exo-); test: steady-state kinetics of single nucleotide insertions, thymidine analogues in the template; format: biochemical, E. coli; parameters: efficiency: unit not given here; details: for efficiency as analog of thymidine in a template strand (summary): Example 4, dATP insertion; for Rel. efficiency: T template = 1; for rel. efficiency: relative to insertion of dATP opposite T
Experimental: (§1) In vitro steady-state kinetics. As polymerase substrates we used 28 mer/23 mer template-primer duplexes having the sequence (5′-ACT GXT CTCCCTATAGTGAGTCGTATTA [SEQ ID NO:1])·(5′-TAATACGACTCACTATAGGGAGA [SEQ ID NO:2]). Kinetics were measured at 37° C. in a buffer containing 10 mM Mg^2+. The primer was 5′ end-labeled and was extended by the polymerase in the presence of a single dNTP species over varied concentration and time. Products of single nucleotide insertions were resolved from unreacted primer by 20% denaturing gel electrophoresis, and were quantitated by autoradiography. Details of the kinetics experiments are given in the Supporting Data.
(§2) We chose DNA polymerase I (Klenow fragment, exonuclease-deficient) as an ideal candidate for initial study, as it is enzymatically well-characterized among replicative enzymes, and yet is relatively small and acts as a single subunit. We carried out kinetics studies of single nucleotide insertions in the steady state, using a gel electrophoresis-based assay.
(§3) Data for single nucleotide insertion kinetics in the steady-state. The enzyme was the Klenow fragment of DNA pol I from E. coli (exonuclease deficient). Methods are as described above.

[2] = tested on: self-complementary strands (5′-XCGCGCG); test: dangling end thermal denaturation studies (base stacking) with self-complementary strands; format: physicochemical; details: dangling residue X in 5′-XCGCGCG
Experimental: Thermal Denaturation Studies. After the samples were prepared in melting buffer (1M NaCl, 10 mM phosphate buffer (pH 7.0) with 0.1 mM EDTA), they were heated to 95° C. and allowed to slowly cool at a rate of 1° C./min to 5° C. The melting studies were carried out in Teflon-stoppered 1 cm path length quartz cells on a Varian Cary 1 UV-vis spectophotometer equipped with thermoprogrammer. Absorbance was monitored at 280 nm for stacking and at 260 nm for base pairing. […] The data were analyzed by the melt curve processing program, MeltWin v. 3.0. Melting temperatures (Tm) were determined by computer-fit of the first derivative of absorbance with respect to 1/T. Uncertainty in Tm is estimated at ±0.5° C. based on repetitions of experiments. Free-energy values were derived by two methods: (1) computer-fitting the denaturation data with an algorithm employing linear sloping baselines, using the two-state approximation for melting. Fits were excellent, with χ^−2 values of 10^−6 or better. (2) Van't Hoff thermodynamic parameters were derived from linear plots of 1/Tm vs In[CT] by measuring Tm as a function of concentration.
Sequence Design. We incorporated all five phosphoramidites into three new sequence contexts each for further study of pairing and stacking properties. The first is a self-complementary sequence designed to form a hexamer duplex, with the nonnatural base analogue overhanging (dangling) at the 5′ ends (Table 2). This same sequence context has been used previously in several studies of DNA base stacking. The second and third contexts comprise a pair of 12mer sequences that form duplexes with well-behaved two-state behavior. One strand is pyrimidine-rich, while the other is purine-rich; we substituted each analogue at a central position of each strand to test two widely varied sequence contexts for pairing effects.
Base Stacking. DNA base stacking stability has been correlated with the size of compounds when mono-, bi-, tri-, and tetra-cyclic base analogues were compared. To test this with the present series, which varies in size by a smaller amount, we examined the short self-complementary oligonucleotides by thermal denaturation experiments. The self-complementary duplexes contained the modified nucleosides as a 5′ overhanging base.

[3] = tested on: DNA Pol I (Klenow fragment, exo-); test: steady-state kinetics of single nucleotide insertions, incoming nucleotide analogues (dNTP/dXTP); format: biochemical, E. coli; details: for rel. efficiency: relative to insertion of dTTP opposite A
Experimental: as §1, §2, §3

[4] = Example 4: incorporating dATP opposite template thymidine analog
[5] = dNTP inserted opposite template base A, 37° C.
[6] = dNTP inserted opposite template base A, 37° C., 10 mM MgCl2, pH 7.5, normalized to lowest enzyme concentration
[7] = dNTP inserted opposite template base A
[8] = dNTP inserted opposite template base C, 37° C.
[9] = dNTP inserted opposite template base C, 37° C., 10 mM MgCl2, pH 7.5, normalized to lowest enzyme concentration
[10] = dNTP inserted opposite template base C
[11] = dNTP inserted opposite template base G, 37° C.
[12] = dNTP inserted opposite template base G, 37° C., 10 mM MgCl2, pH 7.5, normalized to lowest enzyme concentration
[13] = dNTP inserted opposite template base G
[14] = dNTP inserted opposite template base T, 37° C.
[15] = dNTP inserted opposite template base T, 37° C., 10 mM MgCl2, pH 7.5, normalized to lowest enzyme concentration
[16] = dNTP inserted opposite template base T
[17] = Example 4: incorporating dXTP opposite adenine in a DNA template

SMILES | Km [1, 4] | Vmax [1, 4] | efficiency [1, 4] | Rel. efficiency [1, 4] | Km [3, 5] | Vmax [3, 6] | rel. efficiency [3, 7] | Km [3, 8] | Vmax [3, 9] | rel. efficiency [3, 10] | Km [3, 11] | Vmax [3, 12] | rel. efficiency [3, 13] | Km [3, 14] | Vmax [3, 15] | rel. efficiency [3, 16] | further results
Cc1cc([C@H]2C[C@@H](O)[C@@H](CO)O2)c(Cl)cc1Br [2C4B] | 4.18 ± 0.47 µM | 30.4709 ± 0.8544 | (7.38 ± 1.07) × 10^6 | 4.0 × 10^−1 | – | – | – | – | – | – | – | – | – | – | – | – | efficiency as analog of thymidine in a template strand (summary) [1]: probably as good
Cc1cc([C@H]2C[C@@H](O)[C@@H](CO)O2)c(Cl)cc1Cl [2C4C, 2,4-dichlorotoluene] | – | – | – | – | – | – | – | – | – | – | – | – | – | – | – | – | efficiency as analog of thymidine in a template strand (summary) [1]: most efficient analog overall
Cc1cc([C@H]2C[C@@H](O)[C@@H](CO)O2)c(F)cc1Cl [2F4C] | 7.51 ± 2.79 µM | 49.7002 ± 1.5432 | (7.13 ± 2.13) × 10^6 | 3.8 × 10^−1 | – | – | – | – | – | – | – | – | – | – | – | – | efficiency as analog of thymidine in a template strand (summary) [1]: probably as good
Cc1cc([C@H]2C[C@@H](O)[C@@H](CO)O2)ccc1Cl [2H4C] | 31.5 ± 8.91 µM | 2.8214 ± 0.5396 | (9.81 ± 1.58) × 10^4 | 5.3 × 10^−3 | – | – | – | – | – | – | – | – | – | – | – | – | –
Cc1cc([C@H]2C[C@@H](O)[C@@H](CO)O2)cc(Cl)c1Cl [3,4-di-C] | 55 ± 24 µM | 0.4291 ± 0.1095 | (8.30 ± 1.55) × 10^3 | 4.5 × 10^−4 | – | – | – | – | – | – | – | – | – | – | – | – | –
Cc1cc(Cl)cc([C@H]2C[C@@H](O)[C@@H](CO)O2)c1 [3C] | 51.9 ± 1.9 µM | 0.4378 ± 0.1116 | (8.62 ± 0.85) × 10^3 | 4.6 × 10^−4 | – | – | – | – | – | – | – | – | – | – | – | – | –
Cc1c[nH]c(=O)[nH]c1=O [T, thymine, reference compound] | 2.6 ± 0.75 µM | 45.7931 ± 1.7743 | (1.86 ± 0.56) × 10^7 | 1 | – | – | – | – | – | – | – | – | – | – | – | – | Km ([1]; insertion of dATP opposite template base, 37° C.): 1.9 ± 0.5 µM; Vmax ([1]; insertion of dATP opposite template base, 37° C., 10 mM MgCl2, pH 7.5, normalized to lowest enzyme concentration): 24 ± 1 % · m in^−1; rel. efficiency ([1]; insertion of dATP opposite template base): 1; Km ([1]; insertion of dCTP opposite template base, 37° C.): 46 ± 28 µM; Vmax ([1]; insertion of dCTP opposite template base, 37° C., 10 mM MgCl2, pH 7.5, normalized to lowest enzyme concentration): 0.022 ± 0.006 % · m in^−1; rel. efficiency ([1]; insertion of dCTP opposite template base): 3.7 × 10^−5; Vmax ([1]; insertion of dGTP opposite template base, 37° C., 10 mM MgCl2, pH 7.5, normalized to lowest enzyme concentration): 0.41 ± 0.15 % · m in^−1; rel. efficiency ([1]; insertion of dGTP opposite template base): 5.6 × 10^−4; Km ([1]; insertion of dTTP opposite template base, 37° C.): 38 ± 38 µM; Vmax ([1]; insertion of dTTP opposite template base, 37° C., 10 mM MgCl2, pH 7.5, normalized to lowest enzyme concentration): 0.012 ± 0.004 % · m in^−1; rel. efficiency ([1]; insertion of dTTP opposite template base): 2.5 × 10^−5; ΔG°37 (van't Hoff) [2]: -9.1 ± 0.1 kcal/mol; ΔH° (van't Hoff) [2]: -54.4 ± 4.1 kcal/mol; ΔS° (van't Hoff) [2]: −146 ± 13 cal/K · mol; ΔΔG° stacking per base [2]: 0.65 kcal/mol; Tm ([2]; 5.0 μM DNA strand, 1M NaCl, 10 mM phosphate buffer (pH 7.0), 0.1 mM EDTA, 280 nm): 46.0 °C; ΔG°37 (fits) ([2]; curve fits): -9.1 ± 0.1 kcal/mol; ΔTm ([2]; versus duplex with no dangling residue): 7.4 °C
Cc1cc(C2CC(O)C(COP(=O)(O)OP(=O)(O)OP(=O)(O)O)O2)c(Br)cc1Br (stereo not drawn) [dBTP] | – | – | – | – | 23 ± 6 µM | 13 ± 2 % · min^−1 | 3.6 × 10^−2 | 74 ± 22 µM | 0.016 ± 0.001 % · min^−1 | 1.4 × 10^−5 | 50 ± 10 µM | 0.0094 ± 0.0004 % · min^−1 | 1.2 × 10^−5 | 38 ± 21 µM | 0.8 ± 0.16 % · min^−1 | 1.3 × 10^−3 | –
Cc1cc(C2CC(O)C(COP(=O)(O)OP(=O)(O)OP(=O)(O)O)O2)c(F)cc1F (stereo not drawn) [dFTP, reference compound] | – | – | – | – | 29 ± 10 µM | 2.9 ± 0.1 % · min^−1 | 6.3 × 10^−3 | 200 ± 110 µM | 0.012 ± 0.004 % · min^−1 | 3.8 × 10^−6 | 300 ± 120 µM | 0.0067 ± 0.0017 % · min^−1 | 1.4 × 10^−6 | 37 ± 15 µM | 0.0066 ± 0.0010 % · min^−1 | 1.1 × 10^−5 | –
Cc1cccc(C2CC(O)C(COP(=O)(O)OP(=O)(O)OP(=O)(O)O)O2)c1 (stereo not drawn) [dHTP] | – | – | – | – | 110 ± 20 µM | 0.11 ± 0.20 % · min^−1 | 6.3 × 10^−5 | 310 ± 170 µM | 0.0067 ± 0.0023 % · min^−1 | 1.4 × 10^−6 | 200 ± 90 µM | 0.0065 ± 0.0016 % · min^−1 | 2.0 × 10^−6 | 59 ± 27 µM | 0.0046 ± 0.0011 % · min^−1 | 4.9 × 10^−6 | –
Cc1cccc(C2CC(O)C(CO)O2)c1 (stereo not drawn) [dH] | – | – | – | – | – | – | – | – | – | – | – | – | – | – | – | – | fidelity (efficiency of correct T analog:A pair divided by efficiency of the most efficient mismatch) ([1]; varied-size template nucleoside mimics, insertion of dATP vs mismatch): 45
Cc1cc(C2CC(O)C(COP(=O)(O)OP(=O)(O)OP(=O)(O)O)O2)c(I)cc1I (stereo not drawn) [dITP] | – | – | – | – | 18 ± 2 µM | 1.8 ± 0.1 % · min^−1 | 6.3 × 10^−3 | 23 ± 1 µM | 0.0023 ± 0.0004 % · min^−1 | 6.3 × 10^−6 | 43 ± 7 µM | 0.0020 ± 0.0001 % · min^−1 | 2.9 × 10^−6 | 37 ± 7 µM | 0.23 ± 0.02 % · min^−1 | 3.9 × 10^−4 | –
Cc1cc(C2CC(O)C(COP(=O)(O)OP(=O)(O)OP(=O)(O)O)O2)c(Cl)cc1Cl (stereo not drawn) [dLTP] | – | – | – | – | 18 ± 5 µM | 39 ± 4 % · min^−1 | 1.4 × 10^−1 | 160 ± 66 µM | 0.050 ± 0.010 % · min^−1 | 1.9 × 10^−5 | 110 ± 30 µM | 0.035 ± 0.004 % · min^−1 | 2.0 × 10^−5 | 62 ± 21 µM | 0.54 ± 0.10 % · min^−1 | 5.4 × 10^−4 | efficiency lower than for insertion of natural dTTP ([3]; dNTP analog inserted opposite adenine): 7 fold
Cc1cn([C@H]2C[C@H](O)[C@@H](COP(=O)(O)OP(=O)(O)OP(=O)(O)O)O2)c(=O)[nH]c1=O [dTTP, reference compound] | – | – | – | – | 1.9 ± 0.4 µM | 30 ± 3 % · min^−1 | 1 | 510 ± 400 µM | 0.067 ± 0.040 % · min^−1 | 6.3 × 10^−6 | 140 ± 86 µM | 0.42 ± 0.18 % · min^−1 | 2.5 × 10^−4 | 63 ± 18 µM | 0.010 ± 0.002 % · min^−1 | 1.0 × 10^−5 | Km [3, 17]: 1.56 ± 1 µM; Vmax [3, 17]: 30.70 ± 12.0; efficiency [3, 17]: (2.29 ± 0.9) × 10^7; Rel. efficiency ([3]; Example 4: incorporating dXTP opposite adenine in a DNA template, dTTP = 1): 1
